In one series the test system is Vero CCL-81 cells. Briefly: MTT cytotoxicity assay. Particulars: for The maximum nontoxic concentration used for primary screening of drugs against CHIKV: Vero CCL-81, ≥90% cell viability.
A short description of a further series: MTT cytotoxicity assay. To be noted: African green monkey. Background: Tetrazolium assays rely on reduction of a dye to a coloured formazan, in cell work by metabolically active cells.
Series [1] relates to CHIKV. Put plainly: Antiviral assay (pre-, co-, posttreatment) with FFU readout. To be noted: for anti chikungunya activity: Vero CCL-81, any treatment condition; for IC50 / anti-CHIKV activity in primary screening: FFU; for IC50: Vero CCL-81; for anti-CHIKV activity in primary screening: highest nontoxic concentration.
The subject of series [2] is CHIKV. Briefly: Time-of-addition assay (extra- and intracellular virus, FFU).
Series [3] deals with CHIKV. Put plainly: Viral RNA copy number by quantitative RT-PCR.

The text below walks through data of PMC10174255, “Drug repurposing approach against chikungunya virus: an in vitro and in silico study” (Frontiers in Cellular and Infection Microbiology, 2023).

In general, CC50 refers to the concentration giving 50% cytotoxicity. The term IC50 denotes the concentration at which inhibition is half-maximal.

Regarding `CC(C)Cn1c(=O)n(C)c(=O)c2[nH]cnc21` [3-isobutyl 1-methylxanthine], the “The maximum nontoxic concentration used for primary screening of drugs against CHIKV” value (from here on “The maximum nontoxic concentration used”) in the series on Vero CCL-81 cells was 50 µM. In the series “MTT cytotoxicity assay”, the midpoint of cytotoxicity, the CC50, lay at 177 ± 21.7 µM.

Take `C[C@@]12CCC[C@H]1[C@@H]1CC[C@H]3C[C@@H](O)CC[C@]3(C)[C@H]1CC2` [5-α-3-β-androstanol]: in the series on Vero CCL-81 cells, the “The maximum nontoxic concentration used” value was 12.5 µM. Also, the CC50 with Vero CCL-81 cells (read-out: CC50 value ± SE, Vero CCL-81, MTT, 0.78-200 µM) was 23.5 ± 0.856 µM.

As to `COc1cc2c(cc1Cc1cccc(Cl)c1F)c(=O)c(C(=O)O)cn2[C@H](CO)C(C)C` [Elvitegravir], the “The maximum nontoxic concentration used” value with Vero CCL-81 cells turned out to be 6.25 µM. The CC50 in “MTT cytotoxicity assay” came to 12.7 ± 1.52 µM.

For the molecule `CC[C@H]1CN2CCc3cc(OC)c(OC)cc3[C@@H]2C[C@@H]1C[C@H]1NCCc2cc(OC)c(OC)cc21` [Emetine], the “anti chikungunya activity” value in the series on CHIKV [1] is reported as “exhibit anti chikungunya activity”. For the same molecule, the “mean log10 viral titer/ml” value is 7.802 log10 FFU/ml with CHIKV [1] (posttreatment, 50 µM, VC 8.870); 7.550 log10 FFU/ml in the series on CHIKV [1] (posttreatment, 100 µM, VC 8.870); 7.306 log10 FFU/ml with CHIKV [1] (posttreatment, 200 µM, VC 8.870). Further, the midpoint of inhibition with CHIKV [1] (posttreatment), the IC50, lay at 4.24 µM. Besides, the “anti-CHIKV activity in primary screening” value with CHIKV [1] (posttreatment) is recorded as “effective”. The “The maximum nontoxic concentration used” value in the series with Vero CCL-81 cells was 200 µM. Moreover, the CC50 in the series “MTT cytotoxicity assay” is over 200 µM. Moreover, in the series with CHIKV [2] (200 µM, added at 6 h), the “effect on intra- and extracellular virus titre” value was “significant reduction”. Also, in the series on CHIKV [2] (50-200 µM, added at 0 and 3 h), the “effect on intra- and extracellular virus titer” value is “significantly reduced”. In the series with CHIKV [3] (posttreatment), the “effect on viral RNA copy number/titre” value was “No significant reduction”.

On to `O=C(O)Cc1ccc(-c2ccccc2)cc1` [Felbinac], for which the “anti chikungunya activity” value in the series on CHIKV [1] is recorded as “exhibit anti chikungunya activity”. Also, in the series on CHIKV [1] (pretreatment), the “Selectivity Index (SI)” value turned out to be 2205.88, the IC50 was 0.238 µM and the “anti-CHIKV activity in primary screening” value is on record as “effective”. For the same molecule, in the series with CHIKV [1] (pretreatment, 1.56 µM, VC 8.665), the “mean log10 viral titer/ml” value is 7.175 log10 FFU/ml. In the series on CHIKV [1] (pretreatment, 3.125 µM, VC 8.665), the “mean log10 viral titer/ml” value is recorded as 7.040 log10 FFU/ml. Moreover, in the series with Vero CCL-81 cells, the “The maximum nontoxic concentration used” value was 3.125 µM. Moreover, the CC50 in “MTT cytotoxicity assay” amounted to 525 ± 200 µM. In the series on CHIKV [3] (pretreatment), the “effect on viral RNA copy number/titre” value is recorded as “did not have any effect”.

As to `Nc1cccc2c1CN(C1CCC(=O)NC1=O)C2=O` (stereo not drawn) [Lenalidomide], the “The maximum nontoxic concentration used” value with Vero CCL-81 cells is 200 µM.

Consider `CC(C)(C)C#Cc1cc(N(C(=O)[C@H]2CC[C@H](C)CC2)[C@H]2CC[C@H](O)CC2)c(C(=O)O)s1` [Lomibuvir], for which the “anti chikungunya activity” value with CHIKV [1] was “exhibit anti chikungunya activity”. For the same molecule, in the series with CHIKV [1] (posttreatment), the “Selectivity Index (SI)” value is reported as 19.83, 1.59 µM corresponded to half-maximal inhibition (IC50) and the “anti-CHIKV activity in primary screening” value is “effective”. Further, the “mean log10 viral titer/ml” value in the series with CHIKV [1] (posttreatment, 6.25 µM, VC 8.870) came to 7.655 log10 FFU/ml. In addition, in the series with Vero CCL-81 cells, the “The maximum nontoxic concentration used” value was found to be 6.25 µM. For the same molecule, it took 31.5 ± 9.63 µM to reach half-maximal cytotoxicity in the series “MTT cytotoxicity assay” (CC50). The “effect on virus titer” value in the series on CHIKV [2] (3.125 µM, added at 3 and 6 h) was “small but significant reduction”. Moreover, the “effect on intra- and extracellular virus titer” value in the series on CHIKV [2] (6.25 µM, added at 0, 3 and 6 h) is on record as “significantly reduced”. Further, in the series on CHIKV [3] (posttreatment), the “effect on viral RNA copy number/titre” value is on record as “no change observed”.

On to `Cc1ccc(NC(=O)c2ccc(CN3CCN(C)CC3)cc2)cc1Nc1nc(-c2cccnc2)cs1` [Masitinib], for which, in the series on Vero CCL-81 cells (Vero CCL-81, even at lowest concentrations), the “cytotoxicity” value was “highly toxic”.

Take `CC(C)(C(=O)c1cccnc1)c1cccnc1` [Metyrapone]: in the series with CHIKV [1], the “anti chikungunya activity” value was “exhibit anti chikungunya activity”. Besides, in the series on CHIKV [1] (pretreatment), the “Selectivity Index (SI)” value is listed as 457.80, the IC50 came to 12.2 µM and the “anti-CHIKV activity in primary screening” value was “effective”. The “mean log10 viral titer/ml” value in the series with CHIKV [1] (pretreatment, 100 µM, VC 8.665) was found to be 7.136 log10 FFU/ml. Also, the “mean log10 viral titer/ml” value with CHIKV [1] (pretreatment, 200 µM, VC 8.665) is on record as 7.115 log10 FFU/ml. The “The maximum nontoxic concentration used” value with Vero CCL-81 cells is listed as 200 µM. The same molecule registered a CC50 in “MTT cytotoxicity assay” of 5600 ± 6100 µM. The “log10 viral RNA copy number” value in the series on CHIKV [3] (pretreatment, 200 µM, VC 9.670) is reported as 8.984.

In the case of `Cc1nc2c(O)cccc2c(=O)[nH]1` [NU-1025], in the series on Vero CCL-81 cells, the “The maximum nontoxic concentration used” value was 100 µM.
